Like-named read-outs stand apart in the source and are kept apart here. Blank lines part the entries; values can stand above or below the compound they belong to.
Assays:
KAT8 [1] = target: T1, KAT8 (Homo sapiens, UniProt Q9H7Z6); experiment: Steady-state enzyme kinetics of KAT8 substrates; type: biochemical; settings: for Km: read-out: Km of Ac-CoA
T1 sequence (Q9H7Z6 1-458): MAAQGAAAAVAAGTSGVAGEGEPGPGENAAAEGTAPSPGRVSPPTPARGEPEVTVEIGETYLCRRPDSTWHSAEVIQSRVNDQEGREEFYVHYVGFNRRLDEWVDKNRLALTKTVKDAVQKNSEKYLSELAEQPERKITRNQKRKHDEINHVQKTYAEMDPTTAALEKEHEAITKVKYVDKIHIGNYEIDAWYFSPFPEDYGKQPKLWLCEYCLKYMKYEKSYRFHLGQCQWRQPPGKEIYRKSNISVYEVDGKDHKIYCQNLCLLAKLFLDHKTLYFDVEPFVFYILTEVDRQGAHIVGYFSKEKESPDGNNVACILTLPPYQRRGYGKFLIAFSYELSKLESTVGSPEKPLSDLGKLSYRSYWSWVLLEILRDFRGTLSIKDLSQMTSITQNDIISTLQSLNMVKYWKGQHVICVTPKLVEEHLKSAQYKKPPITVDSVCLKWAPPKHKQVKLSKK

KAT8 [2] = target: T1, KAT8; experiment: Isothermal titration calorimetry, titration to KAT8; type: binding; settings: ITC, Ac-CoA vs KAT8
KAT8 [3] = target: T1, KAT8; experiment: KAT8 inhibition, fluorescence-based assay detecting CoA with CPM; type: biochemical; settings: within the investigated range of concentrations (up to 400 µM)

Vmax of Ac-CoA (KAT8 [1]; 15 µM histone H4 peptide): 3.4 ± 0.2 pmol/min
kcat of Ac-CoA (KAT8 [1]; 15 µM histone H4 peptide): 0.0033 ± 0.00033 s⁻¹
Vmax of Ac-CoA (KAT8 [1]; 30 µM histone H4 peptide): 4.5 ± 0.3 pmol/min
kcat of Ac-CoA (KAT8 [1]; 30 µM histone H4 peptide): 0.005 ± 0.00033 s⁻¹
Vmax of Ac-CoA (KAT8 [1]; 60 µM histone H4 peptide): 9.9 ± 0.3 pmol/min
kcat of Ac-CoA (KAT8 [1]; 60 µM histone H4 peptide): 0.012 ± 0.00067 s⁻¹
Vmax of Ac-CoA (KAT8 [1]; 90 µM histone H4 peptide): 14.7 ± 0.6 pmol/min
kcat of Ac-CoA (KAT8 [1]; 90 µM histone H4 peptide): 0.0183 ± 0.001 s⁻¹
Km (KAT8 [1]; 15 µM histone H4 peptide): 1.1 ± 0.3 µM
Km (KAT8 [1]; 30 µM histone H4 peptide): 1.2 ± 0.3 µM
Km (KAT8 [1]; 60 µM histone H4 peptide): 2.1 ± 0.3 µM
Km (KAT8 [1]; 90 µM histone H4 peptide): 2.8 ± 0.5 µM
-TΔS (KAT8 [2]): −17228 cal/mol/degK
Kd (KAT8 [2]): 8.7 ± 1.2 µM
N (stoichiometry) (KAT8 [2]): 0.95
ΔG (KAT8 [2]): −6758
ΔH (KAT8 [2]): 43.806 ± 1.97 kJ/mol
Compound: CC(=O)SCCNC(=O)CCNC(=O)[C@H](O)C(C)(C)COP(=O)(O)OP(=O)(O)OC[C@H]1O[C@@H](n2cnc3c(N)ncnc32)[C@H](O)[C@@H]1OP(=O)(O)O [Ac-CoA, acetyl coenzyme A]

KAT8 inhibitory potency (in words) (KAT8 [3]): loss of potency
Compound: O=C(O)c1c(O)cccc1CCCCCCCCCCCO [Compound 8b]

KAT8 inhibitory potency (in words) (KAT8 [3]): completely lose their affinity
Compound: CCCCCc1ccc(O)c(C(=O)O)c1 [Compound 11c]

KAT8 inhibitory potency (in words) (KAT8 [3]): completely removed activity
Compound: CCCCCCCSCC(=O)c1ccccc1O [Compound 13]

KAT8 inhibitory potency (in words) (KAT8 [3]): completely lose their affinity
Compound: CCCCCc1cccc(O)c1C(=O)O [Compound 14]
